From patent publication US9409876B2, “Bradykinin receptor antagonists and pharmaceutical compositions containing them” (DOMPE' FARMACEUTICI S.P.A., priority 2013, dated 2016)
Where two headings read alike, the source gives them in different places.

Columns and labels:
[1] = Pharmacokinetics after oral gavage; type: in vivo, rat; settings: for AUC(0-inf): read-out: AUCINF_obs (converted); for half-life: read-out: T½
Protocol: In three of the rats tested in Example 56, indicated as R1, […], also the pharmacokinetic profile of compound 8 (R,R) was evaluated. The results are summarised in Tables III to IV and in FIGS. 1-4.
FIGS. 1 and 2 show the plasma concentrations, expressed in ng/ml, of compound 8 (R,R) over time after oral administration for each of the three subjects tested (FIG. 1) and as an average (FIG. 2).
In tables III and V, T1/2 means the half-time of the compound, Tmax means the time at which the concentration of the compound reaches the maximum level, Cmax means the maximal concentration, Tlast means the latest time-point at which the concentration of the compound can be measured, Clast means the concentration at the latest time-point at which the concentration of the compound can be measured, AUClast means the area under the curve at the latest time-point at which the concentration of the compound can be measured, AUCinf_obs means the area under the curve which is infinitely extrapolated and MRTlast means the mean residence time at the latest time-point at which the concentration of the compound can be measured.
In tables IV and VI, LLOQ means lower limit of quantification.

[2] = Metabolic stability in liver microsomes with NADPH; type: in vitro ADME; settings: Wistar, rat, microsomes 0.5 mg/ml, pH 7.4, with NADPH, read-out: intrinsic clearance (CLint)
Protocol: Metabolic stability of compound 8 (R,R) was also determined in rat wistar liver microsomes in the in the presence of NADPH.
The concentration of the compound 8 (R,R) was 1 μM and microsomes 0.5 mg/ml in phosphate buffer 0.1M pH 7.4 with NADPH.
The degradation of the substrates was measured in duplicate by LC/MS/MS during six time points of incubation.

[3] = Sprague-Dawley (SD), rat, plasma, po, 10 mg/kg, oral administration, Average, read-out: plasma level
[4] = Sprague-Dawley (SD), rat, plasma, po, 10 mg/kg, oral administration, Rat2, read-out: plasma level
[5] = Sprague-Dawley (SD), rat, plasma, po, 10 mg/kg, oral administration, Rat3, read-out: plasma level
[6] = Sprague-Dawley, rat, plasma, po, 10 mg/kg, 10 mg/kg oral gavage, Average
[7] = Sprague-Dawley, rat, plasma, po, 10 mg/kg, 10 mg/kg oral gavage, Rat 1
[8] = Sprague-Dawley, rat, plasma, po, 10 mg/kg, 10 mg/kg oral gavage, Rat 2
[9] = Sprague-Dawley, rat, plasma, po, 10 mg/kg, 10 mg/kg oral gavage, Rat 3
[10] = Sprague-Dawley, rat, plasma, po, 10 mg/kg, oral administration, Average, read-out: plasma level
[11] = Sprague-Dawley, rat, plasma, po, 10 mg/kg, oral administration, Rat1, read-out: plasma level
[12] = Sprague-Dawley, rat, plasma, po, 10 mg/kg, oral administration, Rat2, read-out: plasma level
[13] = Sprague-Dawley, rat, plasma, po, 10 mg/kg, oral administration, Rat3, read-out: plasma level

Clast ([1]; 10 mg/kg oral gavage, Average): 1.1 ng/mL
Tlast ([1]; 10 mg/kg oral gavage, Average): 200.0 min
Tlast ([1]; 10 mg/kg oral gavage, Rat 1): 240 min
Tlast ([1]; 10 mg/kg oral gavage, Rat 2): 240 min
Tlast ([1]; 10 mg/kg oral gavage, Rat 3): 120 min
bioavailability ([1]; SD (Sprague-Dawley), rat, plasma, 10 mg/kg, oral vs intravenous exposure): 0.16%
Cmax ([1]; SD (Sprague-Dawley), rat, plasma, po, 10 mg/kg, oral administration): ~3 ng/mL
concentration at 15 min [1, 3]: 2.6 ng/mL
concentration at 15 min [1, 4]: 3 ng/mL
concentration at 15 min [1, 5]: 2.3 ng/mL
concentration at 30 min [1, 3]: 2 ng/mL
concentration at 30 min ([1]; Sprague-Dawley (SD), rat, plasma, po, 10 mg/kg, oral administration, Rat1, read-out: plasma level): 1.8 ng/mL
concentration at 30 min [1, 4]: 2.4 ng/mL
concentration at 30 min [1, 5]: 1.7 ng/mL
concentration at 240 min ([1]; Sprague-Dawley, rat, plasma, oral, 10 mg/kg, 10 mg/kg oral gavage, Rat 1, read-out: Clast): 1.1 ng/mL
concentration at 240 min ([1]; Sprague-Dawley, rat, plasma, oral, 10 mg/kg, 10 mg/kg oral gavage, Rat 2, read-out: Clast): 1.1 ng/mL
concentration at 120 min ([1]; Sprague-Dawley, rat, plasma, oral, 10 mg/kg, 10 mg/kg oral gavage, Rat 3, read-out: Clast): 1 ng/mL
AUC(0-t) [1, 6]: 5.63 ng·h/mL
Cmax [1, 6]: 3.4 ng/mL
MRT last [1, 6]: 1.41 h
Tmax [1, 6]: 0.138 h
AUC(0-inf) [1, 6]: 10.8 ng·h/mL
half-life [1, 6]: 3.37 h
AUC(0-t) [1, 7]: 5.67 ng·h/mL
Cmax [1, 7]: 4 ng/mL
MRT last [1, 7]: 1.69 h
Tmax [1, 7]: 0.0833 h
AUC(0-inf) [1, 7]: 14.4 ng·h/mL
half-life [1, 7]: 5.75 h
AUC(0-t) [1, 8]: 8.62 ng·h/mL
Cmax [1, 8]: 3 ng/mL
MRT last [1, 8]: 1.73 h
Tmax [1, 8]: 0.25 h
AUC(0-inf) [1, 8]: 13.7 ng·h/mL
half-life [1, 8]: 3.19 h
AUC(0-t) [1, 9]: 2.59 ng·h/mL
Cmax [1, 9]: 3.3 ng/mL
MRT last [1, 9]: 0.795 h
Tmax [1, 9]: 0.0833 h
AUC(0-inf) [1, 9]: 4.28 ng·h/mL
half-life [1, 9]: 1.17 h
concentration at 5 min [1, 10]: 3.1 ng/mL
concentration at 5 min [1, 11]: 4 ng/mL
concentration at 5 min [1, 12]: 2.2 ng/mL
concentration at 5 min [1, 13]: 3.3 ng/mL
concentration at 15 min [1, 11]: 2.7 ng/mL
concentration at 60 min [1, 10]: 1.4 ng/mL
concentration at 60 min [1, 11]: 1.3 ng/mL
concentration at 60 min [1, 12]: 2.1 ng/mL
concentration at 60 min [1, 13]: 0.8 ng/mL
concentration at 120 min ([1]; Sprague-Dawley, rat, plasma, po, 10 mg/kg, oral administration, 120 min, Average, read-out: plasma level): 1.7 ng/mL
concentration at 120 min ([1]; Sprague-Dawley, rat, plasma, po, 10 mg/kg, oral administration, 120 min, Rat1, read-out: plasma level): 1.3 ng/mL
concentration at 120 min ([1]; Sprague-Dawley, rat, plasma, po, 10 mg/kg, oral administration, 120 min, Rat2, read-out: plasma level): 2.8 ng/mL
concentration at 120 min ([1]; Sprague-Dawley, rat, plasma, po, 10 mg/kg, oral administration, 120 min, Rat3, read-out: plasma level): 1 ng/mL
concentration at 240 min ([1]; Sprague-Dawley, rat, plasma, po, 10 mg/kg, oral administration, 240 min, Average, read-out: plasma level): 1.1 ng/mL
concentration at 240 min ([1]; Sprague-Dawley, rat, plasma, po, 10 mg/kg, oral administration, 240 min, Rat1, read-out: plasma level): 1.1 ng/mL
concentration at 240 min ([1]; Sprague-Dawley, rat, plasma, po, 10 mg/kg, oral administration, 240 min, Rat2, read-out: plasma level): 1.1 ng/mL
absorption after oral administration ([1]; compared to the intravenous exposure): very poor absorption
plasma level ([1]; oral administration, 240 min, Rat3): <LLOQ
plasma level ([1]; oral administration, 480 min, Average): <LLOQ
plasma level ([1]; oral administration, 480 min, Rat1): <LLOQ
plasma level ([1]; oral administration, 480 min, Rat2): <LLOQ
plasma level ([1]; oral administration, 480 min, Rat3): <LLOQ
microsomal CLint at 1 μM [2]: 851 µL/min/mg
Structure (SMILES): COc1ccccc1CN(C(=O)CC(C)C)[C@@H](C(=O)NC[C@H]1CCCO1)c1ccc(C)cc1 [Compound 8 (R,R), 3-methyl-N-(2-methoxybenzyl)-N-{[(1R)-1-(4-methylphenyl)]-2-oxo-2-[(2R)-(tetrahydrofuran-2-ylmethyl)amino]ethyl}butanamide]
